Source: ChEMBL document CHEMBL1201862, “PubChem BioAssay data set” (2004)
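Briefly, cells in 96-well plates were exposed to five compound concentrations for 48 h, and endpoints were estimated by linear interpolation. Here, GI50 denotes the concentration required for 50% inhibition of growth.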 Active and inactive are the calls of the source. Cut-off read from the data, not from the text of the source: active = GI50 up to about 1.1 µM and inactive = higher.

Assays:
Assay in all cases: NCI tumour cell line growth inhibition, 48 h
IGROV-1 = tested on: IGROV-1
UACC-62 = tested on: UACC-62
T47D = tested on: T47D
NCI-H522 = tested on: NCI-H522
ACHN = tested on: ACHN
A498 = tested on: A498
EKVX = tested on: EKVX
BT-549 = tested on: BT-549
M14 = tested on: M14
MCF7 = tested on: MCF7
SN12C = tested on: SN12C
A549 = tested on: A549
NCI-H460 = tested on: NCI-H460
CAKI-1 = tested on: CAKI-1
HOP-92 = tested on: HOP-92
LOX IMVI = tested on: LOX IMVI
OVCAR-8 = tested on: OVCAR-8
MDA-N = tested on: MDA-N
SK-MEL-28 = tested on: SK-MEL-28
UACC-257 = tested on: UACC-257

Row | Structure (SMILES) | GI50 (IGROV-1) | GI50 (UACC-62) | GI50 (T47D) | GI50 (NCI-H522) | GI50 (ACHN) | GI50 (A498) | GI50 (EKVX) | GI50 (BT-549) | GI50 (M14) | GI50 (MCF7) | GI50 (SN12C) | GI50 (A549) | GI50 (NCI-H460) | GI50 (CAKI-1) | GI50 (HOP-92) | GI50 (LOX IMVI) | GI50 (OVCAR-8) | GI50 (MDA-N) | GI50 (SK-MEL-28) | GI50 (UACC-257)
1 | COc1cc(C2c3cc4c(cc3OC(NC3CCCCC3)C2C)OCO4)cc(OC)c1OC (centres undefined) | 0.665 µM (active) | 0.379 µM (active) | 0.339 µM (active) | 0.359 µM (active) | 0.746 µM (active) | 0.681 µM (active) | 4.47 µM (inactive) | 0.649 µM (active) | 0.508 µM (active) | 0.485 µM (active) | 0.687 µM (active) | 0.885 µM (active) | 0.488 µM (active) | 0.409 µM (active) | 2.65 µM (inactive) | 0.617 µM (active) | 0.845 µM (active) | 0.188 µM (active) | 21.8 µM (inactive) | 46.8 µM (inactive)
2 | O=C(c1nc2ccc([N+](=O)[O-])cc2nc1O)C(O)c1ccc2c(c1)OCO2 (centres undefined) | > 100 µM (inactive) | 96.4 µM (inactive) | > 100 µM (inactive) | 14.8 µM (inactive) | > 100 µM (inactive) | > 100 µM (inactive) | > 100 µM (inactive) | > 100 µM (inactive) | > 94 µM (inactive) | 96.8 µM (inactive) | > 100 µM (inactive) | > 100 µM (inactive) | > 100 µM (inactive) | > 96.2 µM (inactive) | > 100 µM (inactive) | > 67.9 µM (inactive) | > 100 µM (inactive) | 70.8 µM (inactive) | > 100 µM (inactive) | > 100 µM (inactive)
3 | CC(C)c1cc(C(C)C)c(P2(=O)CC3C(Cl)(Cl)C3(C)C2)c(C(C)C)c1 (centres undefined) | 12.1 µM (inactive) | 8.04 µM (inactive) | 6.44 µM (inactive) | 2.09 µM (inactive) | 12.5 µM (inactive) | 13.8 µM (inactive) | 15.8 µM (inactive) | 13.7 µM (inactive) | 8.71 µM (inactive) | 7.31 µM (inactive) | 12.3 µM (inactive) | 9.33 µM (inactive) | 11.5 µM (inactive) | 4.71 µM (inactive) | 12.2 µM (inactive) | 6.68 µM (inactive) | 7.67 µM (inactive) | 10.9 µM (inactive) | 15.8 µM (inactive) | 7.96 µM (inactive)
4 | C=CC1=C(C)c2cc3[nH]c(c4c5nc(cc6[nH]c(cc1n2)c(C=O)c6CC)C(C)=C5C(=O)[C@@H]4C(=O)OC)[C@@H](CCC(=O)O)[C@@H]3C | 63.5 µM (inactive) | > 100 µM (inactive) | 20.7 µM (inactive) | 30.8 µM (inactive) | 46 µM (inactive) | > 100 µM (inactive) | > 100 µM (inactive) | > 100 µM (inactive) | > 100 µM (inactive) | > 100 µM (inactive) | > 100 µM (inactive) | > 100 µM (inactive) | > 100 µM (inactive) | > 100 µM (inactive) | > 100 µM (inactive) | > 100 µM (inactive) | 53.3 µM (inactive) | > 100 µM (inactive) | > 100 µM (inactive) | 83.9 µM (inactive)
5 | COc1ccc(/C=C/c2cnc3ccccc3n2)cc1OC | > 100 µM (inactive) | 77.3 µM (inactive) | 31 µM (inactive) | 24.1 µM (inactive) | > 100 µM (inactive) | 45.7 µM (inactive) | 63.1 µM (inactive) | 57.1 µM (inactive) | 75.7 µM (inactive) | 54.5 µM (inactive) | 52.7 µM (inactive) | 42.6 µM (inactive) | 30.3 µM (inactive) | 74.3 µM (inactive) | 94.8 µM (inactive) | 83.8 µM (inactive) | 41.7 µM (inactive) | 59 µM (inactive) | 92.3 µM (inactive) | > 100 µM (inactive)
6 | CCOC(=O)c1cn2c(n1)sc1cc(Cl)cc(Cl)c12 | > 100 µM (inactive) | > 100 µM (inactive) | > 100 µM (inactive) | > 100 µM (inactive) | > 100 µM (inactive) | > 100 µM (inactive) | > 100 µM (inactive) | > 100 µM (inactive) | > 100 µM (inactive) | > 100 µM (inactive) | > 100 µM (inactive) | > 100 µM (inactive) | > 100 µM (inactive) | > 100 µM (inactive) | > 100 µM (inactive) | > 100 µM (inactive) | > 100 µM (inactive) | > 100 µM (inactive) | > 100 µM (inactive) | > 100 µM (inactive)
7 | COc1nc(C(Cl)(Cl)Cl)c(Cl)c(OC)c1Cl [PENCLOMEDINE] | 14.2 µM (inactive) | 22.4 µM (inactive) | 37.4 µM (inactive) | 33.1 µM (inactive) | 39.3 µM (inactive) | 52.6 µM (inactive) | 40.8 µM (inactive) | 38 µM (inactive) | 40 µM (inactive) | 17.7 µM (inactive) | 39 µM (inactive) | 40.5 µM (inactive) | 21.9 µM (inactive) | 40.3 µM (inactive) | 28.2 µM (inactive) | 29 µM (inactive) | 21.2 µM (inactive) | 26.9 µM (inactive) | 39.7 µM (inactive) | 43.8 µM (inactive)
8 | COC(=O)C1=C(C)NC(C)=C([N+](=O)[O-])C1c1cccc(NO)c1 (centres undefined) | 5.01 µM (inactive) | 6.55 µM (inactive) | 3.27 µM (inactive) | 3.67 µM (inactive) | 3.1 µM (inactive) | 6.24 µM (inactive) | 4.34 µM (inactive) | 4.51 µM (inactive) | 3.44 µM (inactive) | 3.94 µM (inactive) | 4.75 µM (inactive) | 3.86 µM (inactive) | 3.37 µM (inactive) | 8.38 µM (inactive) | 3.6 µM (inactive) | 3.5 µM (inactive) | 5.81 µM (inactive) | 1.79 µM (inactive) | 4.92 µM (inactive) | 4.61 µM (inactive)
9 | COc1cc2c(cc1OCc1ccccc1)NC(=O)[C@@H]1CCCN1C2=O | 58.9 µM (inactive) | > 100 µM (inactive) | > 100 µM (inactive) | > 100 µM (inactive) | > 100 µM (inactive) | > 100 µM (inactive) | > 100 µM (inactive) | > 100 µM (inactive) | > 100 µM (inactive) | > 100 µM (inactive) | > 100 µM (inactive) | > 100 µM (inactive) | > 100 µM (inactive) | > 100 µM (inactive) | > 100 µM (inactive) | > 100 µM (inactive) | > 100 µM (inactive) | > 100 µM (inactive) | > 100 µM (inactive) | > 100 µM (inactive)
10 | CCOC(=O)CCC(NC(=O)Cc1ccc(Nc2nc3cc(F)c(F)cc3nc2C(=O)OCC)cc1)C(=O)OCC (centres undefined) |  | 58.7 µM (inactive) | 25.2 µM (inactive) | 38.2 µM (inactive) | > 100 µM (inactive) | > 100 µM (inactive) | > 100 µM (inactive) | 51.2 µM (inactive) | > 100 µM (inactive) | 88.7 µM (inactive) | 69.2 µM (inactive) | > 100 µM (inactive) | > 100 µM (inactive) | > 100 µM (inactive) | 28.8 µM (inactive) | 44.4 µM (inactive) | 94.2 µM (inactive) | > 100 µM (inactive) | > 100 µM (inactive) | 28.6 µM (inactive)
